Experimental data published in patent publication US6407072B1, “Lysoganglioside derivatives” (Fidia S.p.A., priority 1988, dated 2002).

Assays:
new-born rat = experiment: NMDA-induced neurotoxicity in new-born rat (mortality); assay type: in vivo; conditions: for mortality (deceased/treated) / relative mortality (% of treated): up to 5 days; for protection from mortality following i.c.v. injection of NMDA: s.c., 1 hour before and immediately after NMDA
Description: Newborn rats (7 days old) weighing about 13 g are injected with 25 nmol NMDA i.c.v. Under these conditions the excitotoxin induces a decrease of 28% in weight of the injected hemisphere and a mortality rate of 53.6%.
Administration of the compounds: injection method and parameters observed. […] The compounds were solubilized in PBS. The N-dichloro acetyl lyso GM1 and N-monochloro acetyl lyso GM1 derivatives were tested in comparison to magnesium sulfate, MK-801 (a non-competitive […] of the NMDA receptor) [G. McDonald et al., Eur. J. Pharmacol. 140: 153-157 (1987)] and kinurenic acid [P. Andiné, Neuro-science Letters, 90: 208-212 (1988)] which is capable of diminishing brain damage. Mortality was assessed 5 days after MNDA injection.

cerebral granule cells [1] = experiment: Glutamate-induced neurotoxicity in primary cultures of cerebral granule cells (cell survival); assay type: cell-based, rat; conditions: for protection of cells from neurotoxic effect of glutamate, cotreatment: cotreatment 15 minutes with glutamate 50 μM; for protection from neurotoxic effect, cotreatment and prolonged incubation: cotreatment 35 minutes with glutamate, then prolonged exposure (35 minutes); for reversal of neurotoxic effect of glutamate by post-treatment: post-treatment 20 minutes, after glutamate administered intermittently; for prevention of glutamate-induced neurotoxicity: pretreatment for 2 hours; for concentration required for maximum protective effect: pretreatment
Description: (§1) 1.a. Primary cultures of cerebral granule cells from 8-day-old Sprague Dawley rats (Zivic Miller) [Gallo V. et al., Proc. Natl. Acad. Sci. USA 79, 7919-7923 (1982)]. These cultures contain >90% of granule cells, <5% of GABAergic neurons and <5% of glial cells [Vaccarino F. M. et al., J. Neurosci. 7, 65-76 (1987)]. The cells were used for the experiments on the 8th and 9th days of culture.
(§2) On the 8th and 9th days of culture, concentrations varying between 7 and 100 μM of the following substances are added: N-dichloro acetyl lyso GM1, N-monochloro acetyl lyso GM1, GT1b, GM1. More particularly, the monolayers of granule cells are preincubated with these compounds in Locke's solution (1 ml) for 120 minutes (or for periods of time varying between 0 and 120 minutes) at 37° C. Gangliosides and derivatives are previously dissolved and subsequently diluted, if necessary, in methanol: H2O/95:5. Aliquots of the solution are dried in a N2 current and gathered with a suitable volume of Locke's solution until the final concentration is reached.
1.c. Glutamate-induced neurotoxicity.
The neurotoxic effect of glutamate was assessed under various experimental conditions:
Influence of incubation time ([…]) of the substances before exposure to glutamate: intact cells are preincubated with N-dichloro acetyl lyso GM1, N-monochloro acetyl lyso GM1 (7 μM) and GT1b (60 μM) at 37° C. After removal of excess compound by washing, the cells are incubated with 50 μM of glutamate in the absence of Mg+2 for 15 minutes at room temperature after which the cells are washed three more times and then replaced in the medium. Cell survival is assessed after 24 hours by histochemical techniques, or after […] staining which gives green fluorescence to live cells and red to non-living cells.
Influence of the time interval between pre-treatment with ganglioside derivatives or gangliosides themselves and exposure to glutamate: intact granule cells are preincubated for 2 hours at 37° C. with N-dichloro acetyl lyso GM1 (7 μM) GT1b and GM1 (100 μM). Excess compound is removed by washing and the cells exposed to 50 μM of glutamate (in the absence of Mg^+2) for 15 minutes after various time intervals (1, 2, 4, 6, 12, 18, 24 and 48 hours).
Effect of simultaneous treatment with glutamate and gangliosides: intact granule cells are treated (15 and 35 minutes) with 50 μM of glutamate and the gangliosides N-dichloro acetyl lyso GM1 (7 μM), GT1b and GM1 (100 μM) . In the first type of experiment (cotreatment for 15 minutes) the excess compound is removed by washing, and then cell survival is assessed according to the described method. In the second type of experiment (cotreatment for […]) the cotreatment is prolonged for another 35 minutes of exposure to gangliosides.
Effect of N-dichloro acetyl lyso GM1 following intermittent exposure to glutamate: granule cells are exposed intermittently to glutamate and treated with N-dichloro acetyl lyso GM1 (7 μM) for 20 minutes (in the absence of Mg2+). The excess product is removed by washing.

[2] = test system: Mouse neuroblastoma cells (N2A); experiment: Neuritogenic activity in N2A cells: morphology, % of cells with neurites; assay type: cell-based
Description: Mouse neuroblastoma cells (N2A) at the 180th passage are placed in wells at a concentration of 10,000 cells per well (COSTAR-24). The next day the medium was substituted with 350 μl of DMEM+P/G+10% FCS.
All compounds are dissolved in chloroform/methanol 2:1 dried in N2 current and resuspended in DMEM+P/G+10% FCS. The number of neurites is assessed 24 hours later.

[3] = test system: Mouse neuroblastoma cells (N2A); experiment: 3H Tdr in N2A cells; assay type: cell-based
[4] = test system: Mouse neuroblastoma cells (N2A); experiment: MTT in N2A cells; assay type: cell-based
Granule cells = experiment: N2 anoxia in granule cells, viability by MTT; assay type: cell-based, rat; conditions: for protection against endogenous glutamate-induced neurotoxicity under anoxic conditions: anoxia in N2 chamber; for MTT O.D. (570-630): N2 anoxia in absence of Mg2+; for MTT O.D. (570-630) / MTT O.D. as % of Control (+ MG^2+): MTT after 24 hours; for MTT O.D. as % of Control (+ MG^2+): N2 anoxia
Description: Pretreatment was performed with LIGA 20 and 21 for 10 minutes, and with GM1 for 60 minutes. The cells are washed with serum and placed in anoxic conditions in the absence of Mg^+2 for 5 hours and replaced in the culture medium. Cell viability was measured 24 hours after with MTT.
as §1
Effect of N-dichloro acetyl lyso GM1 following cell anoxia (in N2 chamber) on protection from endogenous glutamate-induced neurotoxicity. Cell viability is assessed by colorimetry after 24 hours (MTT stains only live cells).

PKC [5] = experiment: Translocation of PKC induced by glutamate: [3H]-phorbol ester binding on intact cells; assay type: cell-based, rat; conditions: for inhibition of PKC translocation, cotreatment and prolonged incubation: cotreatment 35 minutes with glutamate, then prolonged exposure (35 minutes)
Description: as §1, §2
1.d. Translocation of PKC induced by glutamate: assessment of [3H]-phorbol ester binding on intact cells.
The effects of binding of [3H]-phorbol ester are assessed under two different types of experimental conditions: […]
[…] After cotreatment the cells-are washed and [^3H]-PDBu binding is assessed in the presence of Mg^+2. Granule cells are grown on discs measuring 35 mm in diameter and then washed and incubated with Locke's solution containing 4-B-[^3H]-phorbol-12, 13-dibutyrate [^3H]-P(Bto)2, 12.5 Ci/mmol (1 Ci=37 GBq; New England Nuclear), in 0.1% fatty acid-free bovine albumin serum (Sigma Chemical Co.). […] The binding is constant for over one hour. After incubation the cells are washed 3 times with cold Locke's solution and suspended with NaOH 0.1M. The aliquots of suspension are used for protein determination [Lowry O. H. et al., J. Biol. Chem. 193, 256-275 (1951)]. Non-specific binding is assessed in the presence of 2 μM phorbol 12-tetradecanoate 13-acetate (PTA).

cerebral granule cells [6] = conditions: literature reports; cited from earlier work
PKC [7] = conditions: exposure of cerebral granule cells; literature reports; cited from earlier work
[8] = 75 nMoli/animal (2 mg/kg) i.p., 1 hr before and immediately after NMDA
[9] = 200 nMoli/animal sc, 1 hr before and immediately after NMDA 25 nMoli i.c.v.
[10] = cotreatment with glutamate 50 μM, 7 μM
[11] = preincubated 2 hours at 100 μM, glutamate 50 μM

| Compound | Morphology (24 hr) % of cells with neurites ([2]; 1 × 10^−4 M) | ^3H Tdr. (48 hr) n = 3 ([3]; 1 × 10^−4 M) | MTT (48 hr) n = 3 ([4]; 1 × 10^−4 M) | protection against endogenous glutamate-induced neurotoxicity under anoxic conditions (Granule cells) | MTT O.D. (570-630) (Granule cells; pretreated 5 μm, 10 min) | MTT O.D. as % of Control (+ MG^2+) (Granule cells; pretreated 5 μm, 10 min) | mortality (deceased/treated) (new-born rat; [9]) | relative mortality (% of treated) (new-born rat; [9]) | protection from mortality following i.c.v. injection of NMDA (new-born rat) | concentration required for maximum protective effect (cerebral granule cells [1]; glutamate 50 μM) | protection of cells from neurotoxic effect of glutamate, cotreatment (cerebral granule cells [1]; 100 μM) | protection from neurotoxic effect, cotreatment and prolonged incubation (cerebral granule cells [1]; 100 μM) | persistence of protective effect on glutamate-induced neurotoxicity after removal of the medium (cerebral granule cells [1]; [11]) | inhibition of PKC translocation, cotreatment and prolonged incubation (PKC [5]; 100 μM) | protection from glutamate-induced cell damage (cerebral granule cells [6]) | translocation and activation of PKC induced by glutamate (PKC [7]) | further results |
| --- | --- | --- | --- | --- | --- | --- | --- | --- | --- | --- | --- | --- | --- | --- | --- | --- | --- |
| C[C@]12N[C@H](Cc3ccccc31)c1ccccc12 [MK 801, reference compound] | – | – | – | – | – | – | – | – | – | – | – | – | – | – | – | – | mortality (deceased/treated) (new-born rat; [8]): 6/16; relative mortality (% of treated) (new-born rat; [8]): 37% |
| CCCCCCCCCCCCC/C=C/[C@@H](O)[C@H](CO[C@@H]1O[C@H](CO)[C@@H](O[C@@H]2O[C@H](CO)[C@H](O[C@@H]3O[C@H](CO)[C@H](O)[C@H](O[C@@H]4O[C@H](CO)[C@H](O)[C@H](O)[C@H]4O)[C@H]3NC(C)=O)[C@H](O[C@]3(C(=O)O)C[C@H](O)[C@@H](NC(C)=O)[C@H]([C@H](O)[C@H](O)CO)O3)[C@H]2O)[C@H](O)[C@H]1O)NC(=O)CCl [LIGA 21, N-Monochloroacetyl Lyso GM1] | 80-90% | 14256 ± 1594 | 0.158 ± 0.01 | active | 0.152 ± 0.013 O.D. | 105% | 0/8 | 0% | protected | – | – | – | – | – | – | – | concentration range of protection (cerebral granule cells [1]; glutamate-induced neurotoxicity): ~10 µM; Morphology (24 hr) % of cells with neurites ([2]; 5 × 10^−5 M): 80-90%; Morphology (24 hr) % of cells with neurites ([2]; 5 × 10^−6 M): <5%; ^3H Tdr. (48 hr) n = 3 ([3]; 5 × 10^−5 M): 36016 ± 5030; ^3H Tdr. (48 hr) n = 3 ([3]; 5 × 10^−6 M): 43035 ± 487; MTT (48 hr) n = 3 ([4]; 5 × 10^−5 M): 0.243 ± 0.008; MTT (48 hr) n = 3 ([4]; 5 × 10^−6 M): 0.324 ± 0.01 |
| CCCCCCCCCCCCCC=CC(O)C(COC1OC(CO)C(OC2OC(CO)C(OC3OC(CO)C(O)C(OC4OC(CO)C(O)C(O)C4O)C3NC(C)=O)C(OC3(C(=O)O)CC(O)C(NC(C)=O)C(C(O)C(O)CO)O3)C2O)C(O)C1O)NC(=O)C(Cl)Cl (stereo not drawn) [LIGA 20, N-dichloroacetyl Lyso GM1] | – | – | – | active | 0.163 ± 0.012 O.D. | 112% | 1/8 | 12.5% | protected | 7 µM | – | – | – | – | – | – | concentration for maximum effect, times less than that of GT1b (cerebral granule cells [1]; 7 μM vs 60 μM): more than 8 times; preincubation time after which protection is evident (cerebral granule cells [1]; 7 μM, glutamate 50 μM): 5 min; protection of cells from neurotoxic effect of glutamate, cotreatment (cerebral granule cells [1]; 7 μM): effective; protection from neurotoxic effect, cotreatment and prolonged incubation (cerebral granule cells [1]; 7 μM): effective; reversal of neurotoxic effect of glutamate by post-treatment (cerebral granule cells [1]; 7 μM): prevents; reversal of neurotoxic effect of glutamate by post-treatment (cerebral granule cells [1]; 7 μM, listed as N-dichloro acetyl lyso GM1): active; persistence of protective effect on glutamate-induced neurotoxicity after removal of the medium (cerebral granule cells [1]; preincubated 2 hours at 7 μM, glutamate 50 μM): at least 24 hours; prevention of glutamate-induced neurotoxicity (cerebral granule cells [1]; 7 μM, glutamate 50 μM): almost totally prevents; inhibition of PKC translocation, cotreatment and prolonged incubation (PKC [5]; 7 μM): effective; inhibition of PKC translocation induced by glutamate, cotreatment (PKC [5]; [10]): inhibits; time of maximum activity in inhibiting PKC translocation (PKC [5]; [10]): 30 min |
| trisialosyl-N-tetraglycosylceramide [GT1b, reference compound] | – | – | – | – | – | – | – | – | – | 60 µM | is not | effective | 4 h | effective | offer protection | inhibits | incubation time after which protection is significant (cerebral granule cells [1]; 60 μM, glutamate 50 μM): 60 min; prevention of glutamate-induced neurotoxicity (cerebral granule cells [1]; 60 μM, glutamate 50 μM): almost totally prevents |
| monosialosyl-N-tetraglycosyl-ceramide [GM1, reference compound] | 70-80% | 40834 ± 1885 | 0.259 ± 0.007 | – | – | – | – | – | – | – | is not | effective | no more than 1 hours | effective | offer protection | inhibits | MTT O.D. (570-630) (Granule cells; pretreated 100 μM, 60 min): 0.160 ± 0.010 O.D.; MTT O.D. as % of Control (+ MG^2+) (Granule cells; pretreated 100 μM, 60 min): 110% |
| N′-monochloro acetyl lyso GM1 [LIGA 22] | <5% | – | – | – | – | – | – | – | – | – | – | – | – | – | – | – | – |
